Reference: paper PMC8342417, “The structure of an archaeal oligosaccharyltransferase provides insight into the strict exclusion of proline from the N-glycosylation sequon” (Communications Biology, 2021)

Target: T1, AfAglB (AglB-L, A. fulgidus oligosaccharyltransferase) (Archaeoglobus fulgidus, UniProt O29867, G617C)
T1 construct: gene aglB3; full length 868 residues; E. coli C43(DE3); C-terminal His10 cut by thrombin leaving ELALVPR; single-subunit membrane protein in DDM, then LCP
Experiment: X-ray crystal structure (LCP), […] Å
Type: binding
Conditions: ternary complex with disulfide-tethered peptide TAMRA-APY(Dab)VTASCR and Mn2+; pH 6.0; LLO donor site; from hydrolysis of native LLO mixture (C55 and C60) during crystallization, modelled as C60

T1 sequence (O29867 whole entry G617C): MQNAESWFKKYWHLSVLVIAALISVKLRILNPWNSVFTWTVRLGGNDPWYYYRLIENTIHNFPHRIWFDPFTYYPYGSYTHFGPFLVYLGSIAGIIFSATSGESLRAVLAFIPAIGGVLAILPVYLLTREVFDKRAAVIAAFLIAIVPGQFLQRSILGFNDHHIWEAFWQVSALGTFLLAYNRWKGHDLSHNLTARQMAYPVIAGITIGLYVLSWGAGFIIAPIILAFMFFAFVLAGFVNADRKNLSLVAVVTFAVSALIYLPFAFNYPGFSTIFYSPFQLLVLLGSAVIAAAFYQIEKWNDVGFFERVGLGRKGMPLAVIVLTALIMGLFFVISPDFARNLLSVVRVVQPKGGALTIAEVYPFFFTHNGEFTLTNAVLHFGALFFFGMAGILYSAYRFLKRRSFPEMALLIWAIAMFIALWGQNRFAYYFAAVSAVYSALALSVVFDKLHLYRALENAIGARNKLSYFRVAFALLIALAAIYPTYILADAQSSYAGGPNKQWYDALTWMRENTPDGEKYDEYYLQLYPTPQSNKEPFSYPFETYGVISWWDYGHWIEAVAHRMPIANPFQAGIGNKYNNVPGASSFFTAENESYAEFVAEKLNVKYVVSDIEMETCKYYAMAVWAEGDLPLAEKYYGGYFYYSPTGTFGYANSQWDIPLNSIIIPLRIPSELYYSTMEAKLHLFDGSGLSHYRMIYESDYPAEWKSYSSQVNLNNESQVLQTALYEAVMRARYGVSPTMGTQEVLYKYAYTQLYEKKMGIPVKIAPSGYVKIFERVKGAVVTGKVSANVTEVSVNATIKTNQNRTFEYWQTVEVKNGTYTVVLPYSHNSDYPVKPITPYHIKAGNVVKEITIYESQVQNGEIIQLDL

C/C(=C/CC/C(C)=C\CC/C(C)=C\CC/C(C)=C/CC/C(C)=C\CC/C(C)=C\CC[C@H](C)CCOP(=O)(O)O)CC/C=C(/C)CC/C=C(/C)CCCC(C)CCCC(C)CCCC(C)C (stereo partly shown) [dolichol-phosphate]
X-ray crystal structure (LCP), 2.7 Å: LLO binding site was occupied by a dolichol-phosphate, instead of an intact LLO
